Measurements as given in PMC5761851, “Application of a phenotypic drug discovery strategy to identify biological and chemical starting points for inhibition of TSLP production in lung epithelial cells” (PLoS ONE, 2018).
Where “and” joins values, the source holds several entries; their conditions need not be identical. Equal entries are not always repeated. Where two headings read alike, the source gives them in different places.

Tests used:
[1] = target: T1, alpha 2C (Homo sapiens, UniProt P18825); test: BioPrint panel: alpha 2C (h) (antagonist); format: binding; conditions: 1 micromolar, read-out: percentage of inhibition of activity
T1 construct: purchased Eurofins Pharma Discovery Services (KinaseProfiler; Cerep BioPrint panel)
From the text: (§1) Supplement pone.0189247.s004.xlsx, sheet "Bioprint Selectivity Panel" | column: %

[2] = target: T2, N neuronal a4 b2 (Homo sapiens, UniProt P17787+P43681); test: BioPrint panel: N neuronal a4 b2 (h) (agonist); format: binding; conditions: 1 micromolar, read-out: percentage of inhibition of activity
T2 construct: purchased Eurofins Pharma Discovery Services (KinaseProfiler; Cerep BioPrint panel)
From the text: as §1

[3] = tested on: Na+ channel (site 2); test: BioPrint panel: Na+ channel (site 2) (antagonist); format: binding; conditions: 1 micromolar
From the text: as §1

[4] = tested on: COMT (catechol- O-methyl transferase); test: BioPrint panel: COMT (catechol- O-methyl transferase); format: biochemical; conditions: 1 micromolar
From the text: as §1

[5] = target: T3, 5-HT1B (Rattus norvegicus, UniProt P28564); test: BioPrint panel: 5-HT1B (antagonist); format: binding; conditions: 1 micromolar, read-out: percentage of inhibition of activity
T3 construct: purchased Eurofins Pharma Discovery Services (KinaseProfiler; Cerep BioPrint panel)
From the text: as §1

[6] = target: T4, p38alpha kinase (Homo sapiens, UniProt Q16539); test: BioPrint panel: p38alpha kinase (h); format: biochemical; conditions: 1 micromolar, read-out: percentage of inhibition of activity
T4 construct: purchased Eurofins Pharma Discovery Services (KinaseProfiler; Cerep BioPrint panel)
From the text: as §1

[7] = target: T5, M1 (Homo sapiens, UniProt P11229); test: BioPrint panel: M1 (h) (antagonist); format: binding; conditions: 1 micromolar, read-out: percentage of inhibition of activity
T5 construct: purchased Eurofins Pharma Discovery Services (KinaseProfiler; Cerep BioPrint panel)
From the text: as §1

[8] = target: T6, beta 2 (Homo sapiens, UniProt P07550); test: BioPrint panel: beta 2 (h) (agonist); format: binding; conditions: 1 micromolar, read-out: percentage of inhibition of activity
T6 construct: purchased Eurofins Pharma Discovery Services (KinaseProfiler; Cerep BioPrint panel)
From the text: as §1

[9] = target: T7, motilin (Homo sapiens, UniProt O43193); test: BioPrint panel: motilin (h) (agonist); format: binding; conditions: 1 micromolar, read-out: percentage of inhibition of activity
T7 construct: purchased Eurofins Pharma Discovery Services (KinaseProfiler; Cerep BioPrint panel)
From the text: as §1

[10] = target: T8, inducible NOS (Mus musculus, UniProt P29477); test: BioPrint panel: inducible NOS; format: biochemical; conditions: 1 micromolar, read-out: percentage of inhibition of activity
T8 construct: purchased Eurofins Pharma Discovery Services (KinaseProfiler; Cerep BioPrint panel)
From the text: as §1

[11] = target: T9, PAF (Homo sapiens, UniProt P25105); test: BioPrint panel: PAF (h) (agonist); format: binding; conditions: 1 micromolar, read-out: percentage of inhibition of activity
T9 construct: purchased Eurofins Pharma Discovery Services (KinaseProfiler; Cerep BioPrint panel)
From the text: as §1

[12] = target: T10, D3 (Homo sapiens, UniProt P35462); test: BioPrint panel: D3 (h) (antagonist); format: binding; conditions: 1 micromolar, read-out: percentage of inhibition of activity
T10 construct: purchased Eurofins Pharma Discovery Services (KinaseProfiler; Cerep BioPrint panel)
From the text: as §1

[13] = tested on: N muscle-type; test: BioPrint panel: N muscle-type (h) (antagonist); format: binding, human; conditions: 1 micromolar
From the text: as §1

[14] = target: T11, kappa (KOP) (Rattus norvegicus, UniProt P34975); test: BioPrint panel: kappa (KOP) (agonist); format: binding; conditions: 1 micromolar, read-out: percentage of inhibition of activity
T11 construct: purchased Eurofins Pharma Discovery Services (KinaseProfiler; Cerep BioPrint panel)
From the text: as §1

[15] = target: T12, H1 (Homo sapiens, UniProt P35367); test: BioPrint panel: H1 (h) (antagonist); format: binding; conditions: 1 micromolar, read-out: percentage of inhibition of activity
T12 construct: purchased Eurofins Pharma Discovery Services (KinaseProfiler; Cerep BioPrint panel)
From the text: as §1

[16] = tested on: Ca2+ channel (L, verapamil site); test: BioPrint panel: Ca2+ channel (L, verapamil site) (antagonist); format: binding; conditions: 1 micromolar
From the text: as §1

[17] = target: T13, D1 (Homo sapiens, UniProt P21728); test: BioPrint panel: D1 (h) (antagonist); format: binding; conditions: 1 micromolar, read-out: percentage of inhibition of activity
T13 construct: purchased Eurofins Pharma Discovery Services (KinaseProfiler; Cerep BioPrint panel)
From the text: as §1

[18] = target: T14, MC1 (Mus musculus, UniProt Q01727); test: BioPrint panel: MC1 (agonist); format: binding; conditions: 1 micromolar, read-out: percentage of inhibition of activity
T14 construct: purchased Eurofins Pharma Discovery Services (KinaseProfiler; Cerep BioPrint panel)
From the text: as §1

[19] = tested on: glycine (strychnine-insensitive); test: BioPrint panel: glycine (strychnine-insensitive)(antagonist); format: binding; conditions: 1 micromolar
From the text: as §1

[20] = target: T15, A2A (Homo sapiens, UniProt P29274); test: BioPrint panel: A2A (h) (agonist); format: binding; conditions: 1 micromolar, read-out: percentage of inhibition of activity
T15 construct: purchased Eurofins Pharma Discovery Services (KinaseProfiler; Cerep BioPrint panel)
From the text: as §1

[21] = target: T16, CCR2 (Homo sapiens, UniProt P41597); test: BioPrint panel: CCR2 (h) (agonist); format: binding; conditions: 1 micromolar, read-out: percentage of inhibition of activity
T16 construct: purchased Eurofins Pharma Discovery Services (KinaseProfiler; Cerep BioPrint panel)
From the text: as §1

[22] = target: T17, EP2 (Homo sapiens, UniProt P43116); test: BioPrint panel: EP2 (h) (agonist); format: binding; conditions: 1 micromolar, read-out: percentage of inhibition of activity
T17 construct: purchased Eurofins Pharma Discovery Services (KinaseProfiler; Cerep BioPrint panel)
From the text: as §1

[23] = target: T18, 5-HT transporter (Homo sapiens, UniProt P31645); test: BioPrint panel: 5-HT transporter (h) (antagonist); format: binding; conditions: 1 micromolar, read-out: percentage of inhibition of activity
T18 construct: purchased Eurofins Pharma Discovery Services (KinaseProfiler; Cerep BioPrint panel)
From the text: as §1

[24] = tested on: I1; test: BioPrint panel: I1 (agonist); format: binding; conditions: 1 micromolar
From the text: as §1

[25] = tested on: Phosphorylation of Akt in THP1 cells; test: PI3Kδ dependent pAkt phosphorylation in M-CSF stimulated THP-1 cells; format: cell-based
Method: Quantification of enzymatic p38 activity and p38-dependent TNF production in THP-1 cells was performed as previously described. Enzymatic Syk kinase activity assays and Syk dependent LAD2 cells degranulation assays were performed as previously described. PI3Kδ dependent pAkt phosphorylation in macrophage colony-stimulating factor (M-CSF) stimulated THP-1 cells was measured as previously described.

[26] = target: T19, PDE4D2 (Homo sapiens, UniProt Q08499); test: BioPrint panel: PDE4D2 (h); format: biochemical; conditions: 1 micromolar, read-out: percentage of inhibition of activity
T19 construct: purchased Eurofins Pharma Discovery Services (KinaseProfiler; Cerep BioPrint panel)
From the text: as §1

[27] = target: T20, MT3 (QR2) (Mesocricetus auratus, UniProt A0ABM2YAB8); test: BioPrint panel: MT3; format: binding
T20 construct: Eurofins Pharma Discovery Services (contract assay service)
T20 sequence (A0ABM2YAB8 1-231): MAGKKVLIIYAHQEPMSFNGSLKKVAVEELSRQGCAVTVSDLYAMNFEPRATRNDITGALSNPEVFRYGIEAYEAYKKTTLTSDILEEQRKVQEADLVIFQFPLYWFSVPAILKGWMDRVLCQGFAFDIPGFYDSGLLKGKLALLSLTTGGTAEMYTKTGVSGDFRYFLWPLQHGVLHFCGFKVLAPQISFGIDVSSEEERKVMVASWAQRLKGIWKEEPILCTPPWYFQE
Method: General selectivity profiling was performed at Eurofins Pharma Discovery Services using the BioPrint® panel and reference database. The panel included 104 binding assays (non-peptide, peptide and nuclear receptors, ion channels and amine transporters) and 41 cell based and enzyme assays (including 10 kinases, 9 proteases and 5 phosphodiesterases) (S4 Table). More than 70% were human targets. Compound 4 was tested at a concentration of 1 μM in duplicate (10 μM for P-gp and CYP enzymes). The resulting bioactivity fingerprint was compared with a database of >2,500 BioPrint marketed drugs and reference compounds. IC50 values for selected activities were further characterized at 8 concentrations in duplicate.

[28] = target: T21, acetylcholinesterase (Homo sapiens, UniProt P22303); test: BioPrint panel: acetylcholinesterase (h); format: biochemical; conditions: 1 micromolar, read-out: percentage of inhibition of activity
T21 construct: purchased Eurofins Pharma Discovery Services (KinaseProfiler; Cerep BioPrint panel)
From the text: as §1

[29] = target: T22, NK1 (Homo sapiens, UniProt P25103); test: BioPrint panel: NK1 (h) (agonist); format: binding; conditions: 1 micromolar, read-out: percentage of inhibition of activity
T22 construct: purchased Eurofins Pharma Discovery Services (KinaseProfiler; Cerep BioPrint panel)
From the text: as §1

[30] = tested on: PCP; test: BioPrint panel: PCP (antagonist); format: binding; conditions: 1 micromolar
From the text: as §1

[31] = target: T23, BACE-1 (beta -secretase) (Homo sapiens, UniProt P56817); test: BioPrint panel: BACE-1 (h) (beta -secretase); format: biochemical; conditions: 1 micromolar, read-out: percentage of inhibition of activity
T23 construct: purchased Eurofins Pharma Discovery Services (KinaseProfiler; Cerep BioPrint panel)
From the text: as §1

[32] = target: p38α (Homo sapiens, UniProt Q16539); test: enzymatic p38 activity; format: biochemical
p38α, sequence (Q16539 whole entry): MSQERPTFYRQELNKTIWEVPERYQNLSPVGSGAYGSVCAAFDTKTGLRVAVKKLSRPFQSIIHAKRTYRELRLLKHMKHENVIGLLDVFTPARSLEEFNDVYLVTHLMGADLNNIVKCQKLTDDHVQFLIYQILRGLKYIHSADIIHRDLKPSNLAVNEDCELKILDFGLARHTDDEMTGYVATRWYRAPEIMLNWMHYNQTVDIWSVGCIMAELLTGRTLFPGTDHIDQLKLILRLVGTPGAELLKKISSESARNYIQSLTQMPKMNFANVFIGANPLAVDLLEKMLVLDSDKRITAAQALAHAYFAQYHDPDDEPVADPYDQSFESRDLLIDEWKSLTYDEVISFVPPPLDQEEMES

T22 sequence (P25103 whole entry): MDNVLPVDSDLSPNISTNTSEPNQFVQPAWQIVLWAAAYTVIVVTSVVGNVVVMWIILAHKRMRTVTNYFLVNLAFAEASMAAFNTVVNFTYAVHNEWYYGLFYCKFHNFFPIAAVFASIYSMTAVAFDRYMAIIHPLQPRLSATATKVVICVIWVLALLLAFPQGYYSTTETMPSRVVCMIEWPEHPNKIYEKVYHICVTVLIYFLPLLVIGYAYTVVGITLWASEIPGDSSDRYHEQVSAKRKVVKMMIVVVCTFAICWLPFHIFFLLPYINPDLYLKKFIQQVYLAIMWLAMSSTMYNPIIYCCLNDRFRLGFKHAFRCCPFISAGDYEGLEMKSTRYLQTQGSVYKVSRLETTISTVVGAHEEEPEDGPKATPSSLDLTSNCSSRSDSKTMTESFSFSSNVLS
T12 sequence (P35367 whole entry): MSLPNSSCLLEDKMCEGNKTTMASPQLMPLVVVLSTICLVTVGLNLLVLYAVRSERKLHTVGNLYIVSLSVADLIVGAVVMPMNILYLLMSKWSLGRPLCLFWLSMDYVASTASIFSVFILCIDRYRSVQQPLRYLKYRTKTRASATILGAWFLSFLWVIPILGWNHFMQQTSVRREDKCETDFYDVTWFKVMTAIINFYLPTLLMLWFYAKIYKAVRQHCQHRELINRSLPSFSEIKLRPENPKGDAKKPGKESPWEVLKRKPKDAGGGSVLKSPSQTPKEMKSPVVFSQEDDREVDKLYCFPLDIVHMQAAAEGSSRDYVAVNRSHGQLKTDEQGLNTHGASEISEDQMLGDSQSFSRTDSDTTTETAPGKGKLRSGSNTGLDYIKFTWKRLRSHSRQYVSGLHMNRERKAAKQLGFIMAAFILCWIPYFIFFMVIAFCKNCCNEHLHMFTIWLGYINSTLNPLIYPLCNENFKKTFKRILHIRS
T3 sequence (P28564 whole entry): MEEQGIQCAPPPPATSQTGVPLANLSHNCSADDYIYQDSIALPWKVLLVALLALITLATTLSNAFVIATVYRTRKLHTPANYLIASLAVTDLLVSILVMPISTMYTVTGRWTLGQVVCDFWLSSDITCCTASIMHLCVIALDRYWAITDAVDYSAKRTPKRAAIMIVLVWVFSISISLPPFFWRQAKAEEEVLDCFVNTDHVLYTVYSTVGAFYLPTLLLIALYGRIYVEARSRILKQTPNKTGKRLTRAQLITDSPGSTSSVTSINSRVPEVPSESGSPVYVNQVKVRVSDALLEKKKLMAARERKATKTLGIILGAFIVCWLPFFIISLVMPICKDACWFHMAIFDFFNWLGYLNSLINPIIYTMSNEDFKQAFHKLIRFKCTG
T7 sequence (O43193 whole entry): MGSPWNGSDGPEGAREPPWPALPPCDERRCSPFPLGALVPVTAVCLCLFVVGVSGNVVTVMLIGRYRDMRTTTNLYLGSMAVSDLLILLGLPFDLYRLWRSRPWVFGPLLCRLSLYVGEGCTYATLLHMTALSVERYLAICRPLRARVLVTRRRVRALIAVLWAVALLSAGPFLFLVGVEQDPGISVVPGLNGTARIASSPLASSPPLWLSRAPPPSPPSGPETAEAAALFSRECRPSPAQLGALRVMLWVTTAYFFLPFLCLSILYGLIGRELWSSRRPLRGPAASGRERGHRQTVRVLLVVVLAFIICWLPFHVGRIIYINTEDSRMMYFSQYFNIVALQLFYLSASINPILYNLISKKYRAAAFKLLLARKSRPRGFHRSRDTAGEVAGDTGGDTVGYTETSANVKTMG
T19 sequence (Q08499 303-809 limits assumed): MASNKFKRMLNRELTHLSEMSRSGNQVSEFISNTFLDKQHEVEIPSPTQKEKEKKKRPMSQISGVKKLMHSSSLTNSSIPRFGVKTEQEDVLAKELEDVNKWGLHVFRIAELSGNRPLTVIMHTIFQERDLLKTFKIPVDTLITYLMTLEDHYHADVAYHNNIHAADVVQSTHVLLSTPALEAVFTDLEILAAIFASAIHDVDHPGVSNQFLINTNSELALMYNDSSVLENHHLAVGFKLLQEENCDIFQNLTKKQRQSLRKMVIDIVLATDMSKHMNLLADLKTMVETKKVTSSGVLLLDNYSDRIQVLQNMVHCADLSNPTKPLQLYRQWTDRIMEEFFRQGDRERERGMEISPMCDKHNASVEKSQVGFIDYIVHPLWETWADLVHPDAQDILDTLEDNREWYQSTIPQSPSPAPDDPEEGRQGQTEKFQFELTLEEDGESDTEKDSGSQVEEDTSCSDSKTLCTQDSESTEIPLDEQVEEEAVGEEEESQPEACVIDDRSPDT
T17 sequence (P43116 whole entry): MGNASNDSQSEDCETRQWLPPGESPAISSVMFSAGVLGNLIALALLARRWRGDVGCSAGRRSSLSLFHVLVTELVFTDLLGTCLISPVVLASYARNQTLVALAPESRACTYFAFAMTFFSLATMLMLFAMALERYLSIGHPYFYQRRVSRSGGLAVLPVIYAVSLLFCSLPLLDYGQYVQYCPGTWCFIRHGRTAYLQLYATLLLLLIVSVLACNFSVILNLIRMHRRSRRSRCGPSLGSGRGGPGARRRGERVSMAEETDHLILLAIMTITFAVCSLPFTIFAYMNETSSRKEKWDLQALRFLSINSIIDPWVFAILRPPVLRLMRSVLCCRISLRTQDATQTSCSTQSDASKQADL
T6 sequence (P07550 whole entry): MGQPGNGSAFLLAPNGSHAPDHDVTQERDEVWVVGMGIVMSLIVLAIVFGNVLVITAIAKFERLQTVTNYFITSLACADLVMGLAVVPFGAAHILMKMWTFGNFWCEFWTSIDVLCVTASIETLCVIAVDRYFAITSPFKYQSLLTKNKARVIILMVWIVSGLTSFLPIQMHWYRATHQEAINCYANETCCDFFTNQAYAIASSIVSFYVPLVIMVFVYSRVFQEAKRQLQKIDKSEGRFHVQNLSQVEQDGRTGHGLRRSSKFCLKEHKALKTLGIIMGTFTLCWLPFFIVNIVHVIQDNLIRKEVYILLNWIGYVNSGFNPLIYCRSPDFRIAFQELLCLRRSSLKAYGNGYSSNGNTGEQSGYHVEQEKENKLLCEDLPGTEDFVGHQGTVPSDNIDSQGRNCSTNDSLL
T5 sequence (P11229 whole entry): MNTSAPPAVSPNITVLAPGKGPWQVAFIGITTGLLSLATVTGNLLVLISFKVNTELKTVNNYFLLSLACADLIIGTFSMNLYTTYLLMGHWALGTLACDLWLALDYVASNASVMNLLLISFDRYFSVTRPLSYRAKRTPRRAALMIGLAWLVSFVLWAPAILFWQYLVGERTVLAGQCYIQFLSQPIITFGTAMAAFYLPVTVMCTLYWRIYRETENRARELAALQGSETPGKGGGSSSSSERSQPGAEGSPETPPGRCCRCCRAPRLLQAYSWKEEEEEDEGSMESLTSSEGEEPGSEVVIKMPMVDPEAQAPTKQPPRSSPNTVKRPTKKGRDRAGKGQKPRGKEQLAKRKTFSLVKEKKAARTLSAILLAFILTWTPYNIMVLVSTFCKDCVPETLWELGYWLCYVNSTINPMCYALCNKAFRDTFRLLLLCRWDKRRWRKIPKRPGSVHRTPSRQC
T10 sequence (P35462 whole entry): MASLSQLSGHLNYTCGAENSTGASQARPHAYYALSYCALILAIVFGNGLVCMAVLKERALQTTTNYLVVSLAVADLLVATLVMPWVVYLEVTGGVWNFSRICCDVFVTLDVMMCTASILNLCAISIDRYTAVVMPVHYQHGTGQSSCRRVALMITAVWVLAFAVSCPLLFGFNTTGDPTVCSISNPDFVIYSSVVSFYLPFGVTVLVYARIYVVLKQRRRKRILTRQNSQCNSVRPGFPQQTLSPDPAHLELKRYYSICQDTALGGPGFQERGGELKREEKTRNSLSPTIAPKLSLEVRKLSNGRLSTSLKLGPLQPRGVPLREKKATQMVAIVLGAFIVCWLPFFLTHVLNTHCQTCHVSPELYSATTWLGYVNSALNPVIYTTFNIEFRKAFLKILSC
T16 sequence (P41597 whole entry): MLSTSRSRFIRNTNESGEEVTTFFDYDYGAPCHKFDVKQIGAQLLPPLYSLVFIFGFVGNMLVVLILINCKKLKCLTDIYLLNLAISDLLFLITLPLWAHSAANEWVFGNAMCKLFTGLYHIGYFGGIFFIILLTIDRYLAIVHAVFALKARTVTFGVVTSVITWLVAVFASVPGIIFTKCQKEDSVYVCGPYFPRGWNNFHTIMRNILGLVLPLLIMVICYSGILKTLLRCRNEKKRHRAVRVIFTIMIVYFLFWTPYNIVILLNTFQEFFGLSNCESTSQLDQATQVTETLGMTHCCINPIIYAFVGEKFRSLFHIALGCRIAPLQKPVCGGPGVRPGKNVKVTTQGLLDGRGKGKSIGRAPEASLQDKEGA
T11 sequence (P34975 whole entry): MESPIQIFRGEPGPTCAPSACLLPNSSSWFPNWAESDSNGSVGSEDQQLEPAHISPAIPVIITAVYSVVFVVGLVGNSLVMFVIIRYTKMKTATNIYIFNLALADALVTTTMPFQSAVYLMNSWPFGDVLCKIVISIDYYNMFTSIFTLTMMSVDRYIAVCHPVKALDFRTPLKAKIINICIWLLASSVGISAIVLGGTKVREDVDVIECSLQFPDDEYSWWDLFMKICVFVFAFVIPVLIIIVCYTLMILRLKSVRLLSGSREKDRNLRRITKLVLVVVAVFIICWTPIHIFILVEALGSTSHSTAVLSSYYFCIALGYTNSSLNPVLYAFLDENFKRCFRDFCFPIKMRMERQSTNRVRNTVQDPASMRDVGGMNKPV

Compound: Cn1cc(-c2cccc(-c3nc(C(=O)NC4C5CC6CC4CC(O)(C6)C5)c(N)nc3N)c2)cn1 (stereo not shown) [compound 4]
- inhibition at 1 µM [1]: -14.1%
- inhibition at 1 µM [2]: -13.9%
- percentage of inhibition of activity [3]: 29.7%
- percentage of inhibition of activity [4]: INTER
- inhibition at 1 µM [5]: -1.1%
- inhibition at 1 µM [6]: 1.5%
- inhibition at 1 µM [7]: -16.7%
- inhibition at 1 µM [8]: 1.6%
- inhibition at 1 µM [9]: -4.9%
- inhibition at 1 µM [10]: -8.8%
- inhibition at 1 µM [11]: -2.1%
- inhibition at 1 µM [12]: -4.2%
- percentage of inhibition of activity [13]: -17.1%
- inhibition at 1 µM [14]: 11.8%
- inhibition at 1 µM [15]: -0.5%
- percentage of inhibition of activity [16]: 6.4%
- inhibition at 1 µM [17]: 2.3%
- inhibition at 1 µM [18]: -2.3%
- percentage of inhibition of activity [19]: -5.3%
- inhibition at 1 µM [20]: -5.3%
- inhibition at 1 µM [21]: 2.6%
- inhibition at 1 µM [22]: -23.9%
- inhibition at 1 µM [23]: -8.5%
- percentage of inhibition of activity [24]: 11.5%
- IC50 ([25]; Homo sapiens, THP-1, M-CSF stimulated, geometric mean, read-out: Activity in reference cell based assay (IC50, μM) (95% CI) Phosphorylation of Akt in THP1 cells): 0.099 µM
- IC50 ([25]; Homo sapiens, THP-1, individual values, read-out: Cellular activity (IC50, mM) Akt phosphorylation in THP1): 0.085 µM
- IC50 ([25]; individual values, read-out: Cellular activity (IC50, mM) Akt phosphorylation in THP1): 0.117 µM
- inhibition at 1 µM [26]: 3%
- inhibition at 1 µM ([27]; 1 μM, read-out: inhibition of MT3): 71%
- inhibition at 1 µM ([27]; 1 micromolar, MT3 (ML2) (agonist), read-out: percentage of inhibition of activity): 71.9%
- IC50 ([27]; dose response, duplicate, read-out: Inhibition of indicated activity (IC50, μM): MT3 (QR2)): 0.4 µM
- inhibition at 1 µM [28]: 6.2%
- inhibition at 1 µM [29]: 11.6%
- percentage of inhibition of activity [30]: -2.1%
- inhibition at 1 µM [31]: -7.3%

Compound: COc1c(NC(=O)c2ccc(C)c(-c3nnc4c(NCC(C)(C)C)nccn34)c2)cc(C(C)(C)C)cc1NS(C)(=O)=O [compound 7, reference compound]
- IC50 ([32]; geometric mean, read-out: Activity in reference biochemical assay (IC50, μM) (95% CI) p38α): 0.003 µM
- IC50 ([32]; individual values, read-out: Biochemical activity (IC50, mM) (p38a)): 0.008 µM and 0.005 µM and 0.001 µM
